This is an account of results in ChEMBL document CHEMBL1201862, “PubChem BioAssay data set” (2004).

Molecules are shown by their SMILES.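 In this assay, cells in 96-well plates receive the compound at five concentrations for 48 hours. Endpoints are linearly interpolated between the surrounding concentrations. GI50 marks 50% less growth.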 Calls of active or inactive are those of the source. Rule as the data show it: active = GI50 up to about 1.1 µM and inactive = higher.

Among the test systems are BT-549; NCI/ADR-RES; NCI-H460; LOX IMVI; UO-31; HL-60; K562; OVCAR-5; UACC-62; TK-10; SK-MEL-28; DU-145; RPMI-8226; COLO 205; OVCAR-4; SW-620; HCC 2998; HOP-92.
Common to all, as to assay: DTP human tumour cell line panel, 48 h

Consider `COc1cc2c3c(c4cc(OC)c(OC)cc4c2cc1OC)[C@H](O)[C@@H]1CCCN1C3`, for which the GI50 (in general, the concentration at which growth is held to half of that of the control) is 0.144 µM (active) with BT-549; < 0.0372 µM (active) in the assay with NCI/ADR-RES; < 0.0226 µM (active) in the assay with NCI-H460; < 0.0265 µM (active) in the assay with LOX IMVI; < 0.0337 µM (active) with UO-31; < 0.0357 µM (active) with HL-60. Moreover, the GI50 with K562 was < 0.021 µM (active); in the assay on OVCAR-5 it was < 0.0316 µM (active); in the assay with UACC-62, < 0.0337 µM (active); with TK-10, 0.0562 µM (active); in the assay on SK-MEL-28 it was < 0.0284 µM (active); in the assay on DU-145 it was < 0.0243 µM (active). Moreover, the GI50 is < 0.0253 µM (active) in the assay on RPMI-8226; < 0.0179 µM (active) in the assay with COLO 205; < 0.0234 µM (active) with OVCAR-4; < 0.0269 µM (active) with SW-620; < 0.0243 µM (active) in the assay with HCC 2998; < 0.0478 µM (active) in the assay with HOP-92.
`O=C1CC(c2ccc([N+](=O)[O-])cc2)C2(C(=O)NC(=S)NC2=O)C(c2ccc([N+](=O)[O-])cc2)C1` (stereo not drawn): the GI50 is 17 µM (inactive) in the assay with BT-549; 31.6 µM (inactive) with NCI/ADR-RES; 21.8 µM (inactive) with NCI-H460; 19 µM (inactive) in the assay with LOX IMVI; 25.4 µM (inactive) in the assay on UO-31; 51.6 µM (inactive) with HL-60. Besides, the GI50 with K562 was 62.5 µM (inactive); in the assay with OVCAR-5, 35.5 µM (inactive); with UACC-62, 14.8 µM (inactive); in the assay on TK-10 it was 16.3 µM (inactive); in the assay on SK-MEL-28, 40.7 µM (inactive); in the assay on DU-145, 31.8 µM (inactive). The GI50 in the assay on RPMI-8226 is 42.9 µM (inactive); in the assay with COLO 205, 33.5 µM (inactive); with OVCAR-4, 45.7 µM (inactive); in the assay with SW-620 it was 29.7 µM (inactive); with HCC 2998, 24.4 µM (inactive); with HOP-92, 26.9 µM (inactive).
`CC1CCC2C(C(=O)O[C@H]3C4C=CO[C@@H](OC5OC(CO)C(O)C(O)C5O)C4[C@@]4(CO)O[C@@H]34)=CO[C@@H](OC3OC(CO)C(O)C(O)C3O)C12` (stereo partly drawn): the GI50 with BT-549, in the assay with NCI/ADR-RES, in the assay with NCI-H460, in the assay on LOX IMVI, in the assay on UO-31 and in the assay with HL-60 was > 10 µM (inactive) each time. The GI50 in the assay on K562, in the assay on OVCAR-5, with UACC-62, in the assay on TK-10, with SK-MEL-28 and with DU-145 was > 10 µM (inactive) each time. The GI50 with RPMI-8226, in the assay with COLO 205, with OVCAR-4, with SW-620, with HCC 2998 and with HOP-92 was > 10 µM (inactive) in each case.
For `Nc1ccccc1SC(C[N+](=O)[O-])c1ccc2c(c1)OCO2` (stereo not drawn), the GI50 with BT-549 is 4.22 µM (inactive); in the assay on NCI/ADR-RES, 20.5 µM (inactive); with NCI-H460, 2.12 µM (inactive); with LOX IMVI, 1.75 µM (inactive); in the assay with UO-31, 1.87 µM (inactive); in the assay on HL-60 it was 1.9 µM (inactive). The GI50 was 1.63 µM (inactive) in the assay with K562; 3.65 µM (inactive) in the assay on OVCAR-5; 13.2 µM (inactive) in the assay on UACC-62; 2.63 µM (inactive) in the assay on TK-10; 3.4 µM (inactive) in the assay on SK-MEL-28; 2.62 µM (inactive) in the assay with DU-145. For the same molecule, the GI50 in the assay on RPMI-8226 is 1.22 µM (inactive); with COLO 205 it was 3.71 µM (inactive); in the assay on OVCAR-4 it was 11.6 µM (inactive); in the assay with SW-620, 2.31 µM (inactive); with HCC 2998 it was 1.78 µM (inactive); in the assay on HOP-92, 15.6 µM (inactive).
Turning to `O=[N+]([O-])c1cc(Cl)ccc1S(=O)(=O)N1CCCc2cc(Cl)ccc21`, the GI50 with BT-549 is 31.9 µM (inactive); in the assay on NCI/ADR-RES, 25.5 µM (inactive); in the assay with NCI-H460, 30.5 µM (inactive); in the assay with LOX IMVI, 34.8 µM (inactive); in the assay on UO-31, 46.2 µM (inactive); in the assay with HL-60 it was > 10 µM (inactive). Also, the GI50 in the assay on K562 was 9.48 µM (inactive); with OVCAR-5, > 100 µM (inactive); in the assay with UACC-62, 19.7 µM (inactive); in the assay on TK-10, > 100 µM (inactive); with SK-MEL-28, > 100 µM (inactive); in the assay on DU-145, 61.5 µM (inactive). Also, the GI50 in the assay with RPMI-8226 is 20.6 µM (inactive); in the assay on COLO 205, 51.8 µM (inactive); in the assay with OVCAR-4, 88.9 µM (inactive); in the assay with SW-620, > 100 µM (inactive); with HCC 2998, > 100 µM (inactive); with HOP-92, 30.8 µM (inactive).
On to `CC1=NN(c2nc(N)nc(C/C(N)=N/O)n2)C(C)(C)C1`, for which the GI50 in the assay with BT-549, with NCI/ADR-RES, with NCI-H460, in the assay with LOX IMVI, in the assay with UO-31 and with HL-60 was > 100 µM (inactive) in each case. Further, the GI50 in the assay on K562, in the assay with OVCAR-5, in the assay with UACC-62, in the assay on TK-10, in the assay with SK-MEL-28 and with DU-145 was > 100 µM (inactive) in each case. The GI50 in the assay on RPMI-8226, with COLO 205, in the assay with OVCAR-4, in the assay with SW-620, with HCC 2998 and in the assay on HOP-92 was > 100 µM (inactive) each time.
For the molecule `O=c1oc2ccc([N+](=O)[O-])cc2c(Nc2ccc3c(c2)Sc2ccccc2O3)c1[N+](=O)[O-]`, the GI50 in the assay with BT-549 is 24 µM (inactive); in the assay with NCI/ADR-RES, 29.5 µM (inactive); in the assay on NCI-H460, 20.2 µM (inactive); with LOX IMVI it was 20 µM (inactive); in the assay with UO-31, 22.6 µM (inactive); with HL-60 it was 18.6 µM (inactive). Moreover, the GI50 in the assay on K562 was 24.2 µM (inactive); in the assay with OVCAR-5 it was 22.1 µM (inactive); with UACC-62, 15 µM (inactive); in the assay with TK-10 it was 27.4 µM (inactive); with SK-MEL-28, 25.9 µM (inactive); in the assay on DU-145, 36.7 µM (inactive). The GI50 in the assay with RPMI-8226 was 9.2 µM (inactive); in the assay on COLO 205, 19.3 µM (inactive); in the assay with OVCAR-4, 32.3 µM (inactive); with SW-620, 30.3 µM (inactive); with HCC 2998, 13.6 µM (inactive); in the assay on HOP-92, 16.3 µM (inactive).
Turning to `CN(/N=C(\C(=O)O)c1ccccc1)C1=NCCN1`, the GI50 was 47.2 µM (inactive) in the assay with BT-549; > 100 µM (inactive) with NCI/ADR-RES; > 100 µM (inactive) in the assay with NCI-H460; > 100 µM (inactive) in the assay on LOX IMVI; > 100 µM (inactive) in the assay with UO-31; > 100 µM (inactive) in the assay with HL-60. For the same molecule, the GI50 in the assay on K562, in the assay on OVCAR-5, in the assay on UACC-62, with TK-10, with SK-MEL-28 and in the assay with DU-145 was > 100 µM (inactive) each time. Also, the GI50 with RPMI-8226, with COLO 205, in the assay on OVCAR-4, with SW-620, in the assay on HCC 2998 and with HOP-92 was > 100 µM (inactive) each time.
On to `C=CCC(C(=O)O)c1ccccc1` (stereo not drawn), for which the GI50 in the assay on BT-549, in the assay on NCI/ADR-RES, with NCI-H460, in the assay on LOX IMVI, in the assay with UO-31 and with HL-60 was > 100 µM (inactive) in each case. The GI50 in the assay with K562, with OVCAR-5, in the assay with UACC-62, with TK-10, in the assay with SK-MEL-28 and in the assay on DU-145 was > 100 µM (inactive) each time. Also, the GI50 in the assay with RPMI-8226, in the assay on COLO 205, in the assay with OVCAR-4, in the assay on SW-620, in the assay on HCC 2998 and with HOP-92 was > 100 µM (inactive) throughout.
Regarding `O=C1O/C(=C(\Br)c2ccc([N+](=O)[O-])cc2)c2ccccc21`, the GI50 was > 79.8 µM (inactive) with BT-549; > 100 µM (inactive) with NCI/ADR-RES; > 100 µM (inactive) with NCI-H460; 67.8 µM (inactive) with LOX IMVI; 62.8 µM (inactive) in the assay with UO-31; 36.1 µM (inactive) with HL-60. For the same molecule, the GI50 with K562 was 30.1 µM (inactive); in the assay with OVCAR-5 it was > 100 µM (inactive); with UACC-62, 58.5 µM (inactive); in the assay with TK-10 it was > 100 µM (inactive); with SK-MEL-28, > 100 µM (inactive); with DU-145, > 100 µM (inactive). Moreover, the GI50 with RPMI-8226 is 38.7 µM (inactive); with COLO 205, > 100 µM (inactive); in the assay on OVCAR-4, > 100 µM (inactive); in the assay with SW-620 it was > 64.3 µM (inactive); in the assay on HCC 2998, > 100 µM (inactive); with HOP-92, > 100 µM (inactive).
Turning to `O=C(CC(=O)Nc1ccccc1)NNC(Sc1ccccc1)c1cc(/N=N/c2ccc(Br)cc2)ccc1O` (stereo not drawn), the GI50 in the assay with BT-549 was 5.12 µM (inactive); in the assay with NCI/ADR-RES, 1.26 µM (inactive); with NCI-H460 it was 0.773 µM (active); in the assay on LOX IMVI, 2.49 µM (inactive); in the assay on UO-31, 2.29 µM (inactive); in the assay on HL-60, 0.356 µM (active). The GI50 with K562 is 2.54 µM (inactive); in the assay with OVCAR-5, 7.98 µM (inactive); in the assay on UACC-62, 2.09 µM (inactive); in the assay on TK-10, 1.45 µM (inactive); in the assay on SK-MEL-28, 2.92 µM (inactive); in the assay on DU-145 it was 2.11 µM (inactive). The GI50 in the assay on RPMI-8226 was 4.2 µM (inactive); in the assay with COLO 205, 3.2 µM (inactive); with OVCAR-4 it was 1.56 µM (inactive); in the assay on SW-620, 0.931 µM (active); with HCC 2998, > 10 µM (inactive); with HOP-92 it was 4.51 µM (inactive).
